From US20250212875A1, “PESTICIDAL AND HERBICIDAL COMPOUNDS AND METHODS OF USE THEREOF” (AG PLENUS LTD, priority 2022, published 2025)

Assays:
[1] = tested on: Arabidopsis thaliana; test: HTPS post-emergence on miniature dicot model plants; assay type: in vivo; details: green area (RGB), maximal concentration 1.5 kg/ha, read-out: Max inhibition (%)
Experimental: Arabidopsis thaliana seeds were sown in 96 well plates filled with irrigated Sweet sand (10%>clay) that is washed from salts and minerals using tap water. 5-10 seeds were sown in the center of each well. 7-8 days post sowing, at 2 true leaves stage, thinning out was performed to ensure that compound application is done on a single plant per well. The plates were placed in a controlled greenhouse in a random order inside a bath which allows flooding irrigation with tap water supplemented with a fertilizer. Applied compounds were dissolved into a final solution of 50% acetone, 49.9% DDW, 0.1% tween-20. A 96 well plate was used as a stock plate for preparing application solutions for 8 repeats. Each row contained different concentrations per chemical. Maximal concentration for application was 1.5 kg/ha and dilution factor is 2.5. Chemical application was performed one day after thinning out in a chemical hood. 5 μL applied on first two true leaves in each well using 12 channel pipettes. Data collection: RGB (red, green, blue) data for green area per well was documented using camera. Data is collected at a few time points during the experiment: one day after thinning and before chemical application, two-, six- or nine-days post application. During the last two documentations, visual phenotyping was performed. Data analysis: Given RGB results and visual phenotype scores, a student t-test conducted to compare between treatment and control performance for continuous data (RGB) and Fisher exact test to analyze the non-continuous data (phenotypic scores). Dose-Response curves are generated for each treatment to infer ED50 and max. inhibition parameters, using treatment's log concentration range as the […] variable and normalized green area. Plate imaging performed at 11 and 18 DAA. RGB data for green area per well was documented and used to extract % inhibition. Dose-Response curves were built for each treatment to infer EC50, EC75 and EC90 parameters, using treatment's log concentration range as the independent variable and normalized green area as the dependent variable. Treatments were compared to controls performance given RGB results and using student's t-test (p-val≤0.05). Compounds 101, 110, 112, 119, 124, 125, 146, 154, 157, 172, 170, 169, 112, and 166 were applied in either or both pre- and post-emergence mode to either or both monocot and dicot model plants, following the methods described above. The compounds were applied as a gradient of concentrations as listed above, from which the ED50 was calculated.

[2] = tested on: Amaranthus retroflexus; test: LTP pre-emergence greenhouse screen; assay type: in vivo
Experimental: (§1) Sowing was performed one day before application.
(§2) Percentage of emergence was evaluated at 15 DAA.

[3] = tested on: Arabidopsis thaliana; test: HTPS pre-emergence on dicot model plants; assay type: in vivo; details: green area (RGB)
Experimental: A 96 well plate was used as a stock plate for preparing application solutions for 8 repeats. Each row contained different concentrations per chemical. Maximal concentration for application was 1.5 kg/ha and dilution factor is 2.5. Chemical application was performed one day after thinning out in a chemical hood. 5 μL applied on first two true leaves in each well using 12 channel pipettes. Data collection: RGB (red, green, blue) data for green area per well was documented using camera. Data is collected at a few time points during the experiment: one day after thinning and before chemical application, two-, six- or nine-days post application. During the last two documentations, visual phenotyping was performed. Data analysis: Given RGB results and visual phenotype scores, a student t-test conducted to compare between treatment and control performance for continuous data (RGB) and Fisher exact test to analyze the non-continuous data (phenotypic scores). […]
(§3) Compounds 101, 110, 112, 119, 124, 125, 146, 154, 157, 172, 170, 169, 112, and 166 were applied in either or both pre- and post-emergence mode to either or both monocot and dicot model plants, following the methods described above. The compounds were applied as a gradient of concentrations as listed above, from which the ED50 was calculated.

[4] = tested on: Eragrostis teff; test: HTPS pre-emergence on monocot model plants; assay type: in vivo; details: green area (RGB)
Experimental: A 96 well plate was used as a stock plate for preparing application solutions for 8 repeats. Each row contained different concentrations per chemical. Maximal concentration for application was 1.5 kg/ha and dilution factor is 2.5. Chemical application was performed one day after thinning out in a chemical hood. 5 μL applied on first two true leaves in each well using 12 channel pipettes. Data collection: RGB (red, green, blue) data for green area per well was documented using camera. Data is collected at a few time points during the experiment: one day after thinning and before chemical application, two-, six- or nine-days post application. During the last two documentations, visual phenotyping was performed. Data analysis: Given RGB results and visual phenotype scores, a student t-test conducted to compare between treatment and control performance for continuous data (RGB) and Fisher exact test to analyze the non-continuous data (phenotypic scores). Dose-Response curves are generated for each treatment to infer ED50 and max. inhibition parameters, using treatment's log concentration range as the […] variable and normalized green area.
These experiments are conducted similarly except that either Arabidopsis thaliana or Eragrostis teff seeds were sowed (5-10 or 5-7, respectively), plant thinning out was not performed, compound dissolved into a final solution of 50% acetone, 49.9% DDW, compound application was done at 30 μL volume per well directly on sowed soil before plant emergence and data was collected 10 or 7 days after chemical application on dicot or monocot plants, respectively.
Plate imaging performed at 11 and 18 DAA. RGB data for green area per well was documented and used to extract % inhibition. […]
as §3

[5] = tested on: Alopecurus myosuroides; test: LTP pre-emergence greenhouse screen; assay type: in vivo
Experimental: as §1, §2

[6] = tested on: Amaranthus palmeri; test: LTP pre-emergence greenhouse screen; assay type: in vivo
Experimental: as §1, §2

[7] = tested on: Echinochloa colona; test: LTP pre-emergence greenhouse screen; assay type: in vivo
Experimental: as §1, §2

[8] = tested on: Poa annua; test: LTP pre-emergence greenhouse screen; assay type: in vivo
Experimental: as §1, §2

[9] = tested on: monocot and eudicot weeds species; test: LTP weed panel, summary in words; assay type: in vivo; details: for growth inhibition (in words): mainly in pre-emergence applications
[10] = tested on: Digitaria sanguinalis; test: LTP pre-emergence greenhouse screen; assay type: in vivo
Experimental: as §1, §2

[11] = tested on: Echinochloa crus-galli; test: LTP pre-emergence greenhouse screen; assay type: in vivo
Experimental: as §1, §2

[12] = tested on: Lolium multiflorum; test: LTP pre-emergence greenhouse screen; assay type: in vivo
Experimental: as §1, §2

[13] = tested on: Lolium perenne; test: LTP pre-emergence greenhouse screen; assay type: in vivo
Experimental: as §1, §2

[14] = tested on: Phalaris paradoxa; test: LTP pre-emergence greenhouse screen; assay type: in vivo
Experimental: as §1, §2

[15] = tested on: monocot and dicot model plants; test: HTPS model plants, summary in words; assay type: in vivo; details: HTPS systems where they were tested
Experimental: Arabidopsis thaliana seeds were sown in 96 well plates filled with irrigated Sweet sand (10%>clay) that is washed from salts and minerals using tap water. 5-10 seeds were sown in the center of each well. 7-8 days post sowing, at 2 true leaves stage, thinning out was performed to ensure that compound application is done on a single plant per well. The plates were placed in a controlled greenhouse in a random order inside a bath which allows flooding irrigation with tap water supplemented with a fertilizer. Applied compounds were dissolved into a final solution of 50% acetone, 49.9% DDW, 0.1% tween-20.
A 96 well plate was used as a stock plate for preparing application solutions for 8 repeats. Each row contained different concentrations per chemical. Maximal concentration for application was 1.5 kg/ha and dilution factor is 2.5. Chemical application was performed one day after thinning out in a chemical hood. 5 μL applied on first two true leaves in each well using 12 channel pipettes. […]
as §3

[16] = tested on: Setaria viridis; test: LTP post-emergence greenhouse screen
Experimental: (§4) A basic panel of eight weed species (Table 3) sowed in 4×4×7 cm plastic pots containing a garden mix (klasmann). Each specie was sowed in a separate pot. In each pot, 10-15 seeds were sowed according to the specie viability. Timing of application determined at a 1-2 true leaf stage. The plants grew for 30 days in a controlled greenhouse (26±2° C. day, 20±2° C. night). Flood irrigation (tap water+Shefer 5:3:8 8 mM) was given at a 50% water content by weight. Two days before application, the tested plants thinned down to three plants per pot. Compounds were soluble in water (DDW), and commercial herbicide control was soluble in formulation B (Table 4). Before application, 1% (v/v) crop oil and 0.02% (v/v) surfactant (Tergitol™ 15-S-7) were added to the solution. Application was conducted with an industrial sprayer (TeeJet 6502E nozzle) at a rate of 2 kg/ha and spray volume of 4801/ha. Plants were evaluated at 3 time points (4, 8, 12 days after application (DAA)). At each time point, visual phenotyping was recorded using a scale of 0-6 (0: no visible effect, 6: maximum effect). At 12 DAA, plants foliage was harvested, dried and weighed for dry weight analysis.
(§5) Post-emergence advanced wide panel experiment included 24 weed species (Table 5). Application was conducted at 2 rates of 2 kg/ha and 0.25 kg/ha and spray volume of 480 l/ha. Visual phenotyping was recorded at 4, 11, 17 and 20 DAA using a scale of 0-6 (0: no visible effect, 6: maximum effect). At 21 DAA, plants foliage was harvested, dried, and weighed for dry weight analysis. All experiments included an untreated control, a solvent control, and a positive control (commercial herbicide A.I.). Statistical analysis for visual phenotyping determined by a median value of ≥3.5 and Fisher test (pval≤0.05). Statistical analysis for dry weight determined by % inhibition ≥50 and T test (pval≤0.05), as well as Wilcox test (pval≤0.05).

[17] = tested on: Alopecurus monureide's; test: LTP post-emergence greenhouse screen
Experimental: as §4, §5

[18] = tested on: Lolium perenne; test: LTP post-emergence greenhouse screen
Experimental: (§6) A basic panel of eight weed species (Table 3) sowed in 4×4×7 cm plastic pots containing a garden mix (klasmann). Each specie was sowed in a separate pot. In each pot, 10-15 seeds were sowed according to the specie viability. Timing of application determined at a 1-2 true leaf stage. The plants grew for 30 days in a controlled greenhouse (26±2° C. day, 20±2° C. night). Flood irrigation (tap water+Shefer 5:3:8 8 mM) was given at a 50% water content by weight. Two days before application, the tested plants thinned down to three plants per pot. Compounds were soluble in water (DDW), and commercial herbicide control was soluble in formulation B (Table 4). Before application, 1% (v/v) crop oil and 0.02% (v/v) surfactant (Tergitol™ 15-S-7) were added to the solution. […] Plants were evaluated at 3 time points (4, 8, 12 days after application (DAA)). At each time point, visual phenotyping was recorded using a scale of 0-6 (0: no visible effect, 6: maximum effect). […]
(§7) All experiments included an untreated control, a solvent control, and a positive control (commercial herbicide A.I.). Statistical analysis for visual phenotyping determined by a median value of ≥3.5 and Fisher test (pval≤0.05). Statistical analysis for dry weight determined by % inhibition ≥50 and T test (pval≤0.05), as well as Wilcox test (pval≤0.05).

[19] = tested on: Poa annua; test: LTP post-emergence greenhouse screen
Experimental: as §4, §5

[20] = tested on: Echinochloa colona; test: LTP post-emergence greenhouse screen
Experimental: as §4, §5

[21] = tested on: Digitaria sanguinalis; test: LTP post-emergence greenhouse screen
Experimental: as §4, §5

[22] = tested on: Lolium multiflorum; test: LTP post-emergence greenhouse screen
Experimental: as §6, §7

[23] = tested on: Echinochloa crus-galli; test: LTP post-emergence greenhouse screen
Experimental: as §4, §7

CC(C)C(N)C/C=C/CC(=O)O (stereo not drawn) [Compound 157]
inhibition at up to 1500 g/ha [1]: 100%

CC(N)CC/C=C/CC(=O)O (stereo not drawn) [Compound 169]
IG: inhibited growth [2]: IG (80) | inhibition at up to 1500 g/ha [1]: 100%

NC1(C/C=C/CC(=O)O)CC1 [Compound 112]
inhibition at up to 1500 g/ha [1]: 87.5% | Max inhibition (%) [3]: 100% | Max inhibition (%) [4]: 51%

NC1CCCC(/C=C/CC(=O)O)C1 (stereo not drawn) [Compound 124]
IG: inhibited growth [5]: IG (80) | IG: inhibited growth [6]: IG (80) | IG: inhibited growth [7]: IG (100) | IG: inhibited growth [8]: IG (100) | inhibition at up to 1500 g/ha [1]: 100% | growth inhibition (in words) [9]: very good to moderate growth inhibition

NC1CCCC(C#CCC(=O)O)C1 (stereo not drawn) [Compound 154]
IG: inhibited growth [5]: IG (80) | IG: inhibited growth [6]: IG (80) | IG: inhibited growth [7]: IG (100) | IG: inhibited growth [8]: IG (100) | inhibition at up to 1500 g/ha [1]: 100% | growth inhibition (in words) [9]: very good to moderate growth inhibition

CCCC(N)C/C=C/CC(=O)O (stereo not drawn) [Compound 166]
inhibition at up to 1500 g/ha [1]: 75% | Max inhibition (%) [4]: 47%

CC(O)C(N)C/C=C/CC(=O)O (stereo not drawn) [Compound 101]
IG: inhibited growth [5]: IG (80) | IG: inhibited growth [10]: IG (100) | IG: inhibited growth [7]: IG (100) | IG: inhibited growth [11]: IG (100) | IG: inhibited growth [12]: IG (100) | IG: inhibited growth [13]: IG (80) | IG: inhibited growth [14]: IG (80) | IG: inhibited growth [8]: IG (100) | inhibition at up to 1500 g/ha [1]: 100% | control of weeds (in words) ([9]; monocot and eudicot weeds species, post-emergence and pre-emergence, most of the species tested): excellent control | control (in words) [15]: excellent to very good control | DAB: disturbed apical bud [16]: IG (60), DAB (60) | IG: inhibited growth [16]: IG (60), DAB (60) | Bl: bleaching [17]: 60 | DAB: disturbed apical bud [17]: IG (80), DAB (80), | Drd: disturbed root growth [17]: 80 | IG: inhibited growth [17]: IG (80), DAB (80), | Drd: disturbed root growth [18]: 80 | IG: inhibited growth [18]: 60 | Drd: disturbed root growth [19]: IG (80), Drd (80) | IG: inhibited growth [19]: IG (80), Drd (80) | DAB: disturbed apical bud [20]: 60 | Drd: disturbed root growth [20]: Drd (80) | IG: inhibited growth [20]: 80 | DAB: disturbed apical bud [21]: IG (80), DAB (80), | Drd: disturbed root growth [21]: Drd (80) | IG: inhibited growth [21]: IG (80), DAB (80), | Drd: disturbed root growth [22]: Drd (60) | DAB: disturbed apical bud [23]: 60 | Drd: disturbed root growth [23]: Drd (80) | IG: inhibited growth [23]: 80
